Experimental data: patent publication US20090105200A1, “Combination therapy” (priority 2007, published 2009)

Tests used:
[1] = system: Mcl-1; assay: Immunoblot analysis of Mcl-1; format: cell-based, human
Protocol: (§1) Methods. […] Immunoblot analysis (30 μg of protein per condition) was performed to detect cleavage of caspase-12 and PARP, levels of IκB c, phospho-IκBα, p65, p100/p52, as well as expression of NF-κB downstream anti-apoptotic proteins. Parallel studies were performed in two established CLL cell lines (JVM-3 and MEC-2, DSMZ).

[2] = system: primary CLL cells; assay: Cell death by 7AAD staining/flow cytometry and Wright-Giemsa stained cytospin slides; format: cell-based, human; conditions: 24 hours; for toxicity to CLL cells (photomicrographs): individual treatment, 3 nM
[3] = system: NF-κB2 precursor p100; assay: Immunoblot analysis of p100/p52; format: cell-based, human; conditions: bortezomib with romidepsin
Protocol: as §1

[4] = system: bortezomib-resistant cells (U266/PS-R); assay: Apoptosis by Annexin V-FITC staining and flow cytometry; format: cell-based, human; conditions: 48 hours; 2 nM romidepsin with 5-15 nM bortezomib
[5] = Phase I/II dose escalation trial: toxicity and maximum tolerated dose; format: in vivo, human; conditions: dose level 2; with bortezomib 1.3 mg/m^2 and dexamethasone 20 mg; 28-day cycle
Text: The trial design is illustrated in FIG. 10.
Specifically, during phase I (accelerated dose escalation phase), an accelerated titration design was used to ascertain the MTD of romidepsin. For example, if no dose limiting toxicities (DLTs) and <2 patients have moderate toxicities in cycle 1 (C1), the next patient is entered at one level higher. According to National Cancer Institute Common Toxicity Criteria (NCI-CTC) (version 3), DLT is defined as platelets<25×10^9/L; Grade 4 neutropenia despite G-CSF support; Grade 3 or 4 nausea, emesis, or diarrhea despite treatment; any other Grade 3 or 4 non-haematological toxicity; or >4 week suspension of treatment due to toxicity. The accelerated phase ends when one patient has a DLT during C1 or two patients have “moderate” toxicity during first treatment cycles. Patients were entered in cohorts of three according to the standard dose escalation design. A maximum of six patients were treated at any dose level. MTD is defined as the highest dose level at which the incidence of DLT is less than 33%. […]

[6] = system: NF-κB; format: cell-based, human; conditions: romidepsin alone
Protocol: as §1

[7] = system: dexamethasone-resistant (MM.1R) human myeloma cells; assay: Apoptosis by Annexin V staining and flow cytometry; format: cell-based; conditions: 24 hours; 1 nM romidepsin with 2 nM bortezomib
[8] = bortezomib 3 nM with romidepsin 3-5 nM, five patients

## CC(C)C[C@H](NC(=O)[C@H](Cc1ccccc1)NC(=O)c1cnccn1)B(O)O [bortezomib, [(1R)-3-methyl-1-[[(2S)-1-oxo-3-phenyl-2-[(pyrazinylcarbonyl)amino]propyl]amino]butyl]boronic acid]
[1]; bortezomib alone
  Mcl-1 level: induced accumulation of Mcl-1
[2]
  toxicity to CLL cells (photomicrographs): relatively non-toxic
[3]
  processing of NF-κB2 precursor p100 into p52: blocked romidepsin-mediated processing of NF-κB2 precursor p100 into its active p52 form

## C/C=C1\NC(=O)[C@H]2CSSCC/C=C/[C@H](CC(=O)N[C@H](C(C)C)C(=O)N2)OC(=O)[C@H](C(C)C)NC1=O [romidepsin, (1S,4S,10S,16E,21R)-7-[(2Z)-ethylidene]-4,21-diisopropyl-2-oxa-12,13-dithia-5,8,20,23-tetraazabicyclo[8.7.6]tricos-16-ene-3,6,9,19,22-pentanone]
[4]
  effect on bortezomib lethality: potentiates bortezomib lethality
[1]; cells co-exposed to romidepsin
  bortezomib-induced Mcl-1 accumulation: diminished
[5]
  maximum tolerated dose of romidepsin: 10 mg/m^2
[6]
  NF-κB activity: activated NF-κB activity
[7]
  effect on bortezomib lethality: potentiate bortezomib lethality
[2]; [8]
  primary CLL samples with additive lethality: additive lethality in one sample
  primary CLL samples with increased bortezomib lethality: dramatically increased bortezomib lethality in four out of five primary CLL samples
[2]
  toxicity to CLL cells (photomicrographs): relatively non-toxic
